# Laboratory results from patent publication US20250034139A1, “AMINE COMPOUNDS HAVING ANTI-INFLAMMATORY, ANTIFUNGAL, ANTIPARASITIC, AND ANTICANCER ACTIVITY” (PHARMA CINQ, LLC, priority 2013, published 2025).
# Marks after values point to notes of the source that are not given here.
# How the values were obtained:
# [1] = test system: 4T1 mouse mammary breast cancer cells; test: Example O: syngeneic 4T1 breast cancer growth in Balb/C mice; type: in vivo; settings: 4T1 in female Balb/C mice; for Final Tumor Volume: 120 μmol/kg/day oral gavage, day 2 to day 30; for Δ BW % / Final Body Weight / Initial Body Weight: 120 μmol/kg/day oral; for Δ BW %: final vs initial body weight; for Final Body Weight: in g (unit assumed); for Initial Body Weight: initial (baseline)
# How it was run: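 Syngeneic 4T1 tumors in immunocompetent Balb/C mice; compounds dosed orally by gavage in 1% HPMC, 120 μmol/kg/day, from day 2 to day 30. Tumor growth by caliper twice weekly plus tumor weight at necropsy; body weight monitored.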
# [2] = test system: HCT-116 colon adenocarcinoma cells; test: Example Q: HCT-116 liver metastases of human colorectal cancer in nude mice; type: in vivo; settings: 240 μmol/kg/day oral, 28 days
# Excerpt: A major cause of morbidity and mortality in patients with colorectal cancer is metastasis of the tumor into the liver; colorectal cancer can often be successfully resected from the primary site, but metastases to the liver are much less accessible to surgical treatment. A mouse model of colorectal cancer metastasis to the liver has been established, using HCT-116 colon adenocarcinoma cells injected into the spleen of athymic (nude) mice. The HCT-116 cancer cells spontaneously spread from the spleen into the liver via the circulation, and they form tumors in the liver (Ishizu, K., Sunose, N., Yamazaki, K., Tsuruo, T., Sadahiro, S., Makuuchi, H., and Yamori, T. Development and Characterization of a Model of Liver Metastasis Using Human Colon Cancer HCT-116. Biol. Pharm. Bull. 2007, 30(9):1779-1783).
# Mice (female Hsd:athymic nude-Foxn1^nu) were anesthetized with xylazine/ketamine intraperitoneal injection, followed by incision approximately 10 mm on the left subcostal region (area disinfected with ethanol) to expose the peritoneum. The peritoneum was opened for about 8 mm near the spleen, and 2.5×10^6 cells in 50 μL PBS were injected into the spleen using a 30G needle. The spleen was repositioned, and the surgical area was closed using sutures and clips.
# The day after receiving cells, mice were randomized into groups of five based upon body weight to provide groups with approximately equivalent mean body weight. Mice received a single, daily oral dose of test article or vehicle (1% hydroxypropylmethylcellulose) beginning 48 hours following cell injection into the spleen.
# At study termination 28 days after HCT-116 cell injection, body weights were recorded, and spleens and livers were removed, weighed and fixed in 10% formalin. Livers were sectioned and stained; the relative areas of normal and tumor tissue were quantified in histology sections with quantitative planimetry software.
# [3] = test system: Vit-D3 activated THP-1 cells; test: Example B: viable cell count, AC vs chloroquine, +/- LPS; type: cell-based, Human; settings: LPS-stimulated and basal THP-1 cells, 5 hours
# Description: (§1) • 1. Vit-D3 activated THP-1 cells (0.5×10^6 cells in 2 ml) were transferred to the wells of a 24-well dish • 2. Compound AC was added at a concentration of 0.5 μM, 1.0 μM or 5.0 μM • 3. […] LPS from E. coli 0111:B4 (1 ng/ml final concentration) was added to some wells • 5. After 5 hours viable cell count, Acridine Orange (A.O.) uptake and JC-1 mitochondrial loading were determined by fluorescence-activated cell sorting (FACS)
# (§2) THP-1 cells (p39) treated with 0.1 μM vit-D3 (100 μM) in DMSO] for 3 days were counted, spun down, resuspended in serum-free RPMI (Lonza 12-115F) and transferred to the wells of two 24-well dishes (0.5×10^6 cells in 2 ml). […] Crude-LPS from E. coli 0111:B4 was added to some wells (1 ng/ml final conc) and the plates placed in a 37 C incubator. 1 μl of Baf A1 (50 nM final conc) was added to one well (no LPS) at T=4 hours to serve as a compensation control for Acridine Orange loading. After 5 hours, 500 μl aliquots of cells were transferred to FACS tubes and viable cell counts, A.O. loading and JC-1 accumulation determined by FACS.
# The tubes were washed twice in DPBS, resuspended in 500 μl DPBS and acquired on the FACSCalibur.
# [4] = test system: Vit-D3 activated THP-1 cells; test: Example B: JC-1 mitochondrial loading (mitochondrial membrane potential); type: cell-based, Human; settings: 5 hours
# Description: In this experiment, cell viability was monitored and uptake and accumulation of acridine orange, a lysosomotropic fluorescent dye, was used to assess lysosomal acidification and integrity. JC-1 dye was used to measure effects of test compounds on mitochondrial membrane potential (MMP); reduction of MMP is a feature of apoptotic cell death.
# as §1, with “Compound AC was added at a concentration of 0.5 μM, 1.0 μM or 5.0 μM • 3.” left out
# as §2
# [5] = test system: PC-3 cells; test: Example P: PC-3 human hormone-independent prostate cancer xenografts in nude mice; type: in vivo
# Description: Standard models for prostate cancer use subcutaneous xenografts of human prostate cancer cell line. Local measurable tumors are produced at the site of injection of the cells, and they metastasize to critical tissues such as the bones, lungs and liver. Mortality in this model is due to metastases impairing tissue function. Compounds of the invention were assessed for inhibition of tumor growth and reduction or delay of mortality in the PC-3 prostate cancer model, which mimics an advanced, androgen-independent stage of prostate cancer.
# 10 female nude mice (female Hsd:athymic nude-Foxn1^nu) received PC-3 cells (5×10^6 per mouse in 0.1 mL PBS) by subcutaneous injection into the right hind flank. […] Mice received AC or vehicle (saline) via intraperitoneal (i.p.) injection once daily until day 79. • 1. […] Compound AC: 120 μmol/kg/day.
# Tumors were measured with calipers twice per week, and body weights and mortality were also monitored.
# [6] = HCT-116 liver metastases, nude mice
# [7] = AC 120 μmol/kg/day i.p. once daily, group of 5
compound,measurement,setting,value
"CCCCCCOc1ccc(CNc2ccnc3ccccc23)cc1 [AA, N-[4-(Hexyloxy)benzyl]quinolin-4-amine]",Final Tumor Volume,[1],563 ± 175 mm^3
same,Δ BW %,[1],−5.1%
same,Final Body Weight,[1],20.3 ± 1.3
same,Initial Body Weight,[1],21.4 ± 1.0 g
same,Final Body Weight Grams,[2]; [6],28.2 ± 1.5 NS Grams
same,Liver Weight % of Body Weight,[2]; [6],5.3 ± 0.2%
same,Tumor Area % of Vehicle Group,[2]; [6],1.5% *
same,Tumor Area % of Total Liver,"[2]; HCT-116 liver metastases, nude mice, histology planimetry",0.2 ± 0.26%
"CCCCCCOc1cccc(CNc2ccnc3ccccc23)c1 [Compound AC, N-[3-(Hexyloxy)benzyl]quinolin-4-amine]",potency of AC relative to chloroquine for inactivating macrophages (THP-1 cells),[3],approximately 100 fold
same,"JC-1 Red cells (functional mitochondria) percent change from DMSO (no LPS), Mean ± SE","[4]; 0.1 μM AC, 1 ng/ml LPS",−1.66 ± 0.96%
same,"JC-1 Red cells (functional mitochondria) percent change from DMSO (no LPS), Mean ± SE","[4]; 0.1 μM AC, No LPS",1.18 ± 0.91%
same,"JC-1 Red cells (functional mitochondria) percent change from DMSO (no LPS), Mean ± SE","[4]; 0.5 μM AC, 1 ng/ml LPS",−7.19 ± 1.52%
same,"JC-1 Red cells (functional mitochondria) percent change from DMSO (no LPS), Mean ± SE","[4]; 0.5 μM AC, No LPS",−4.39 ± 1.40%
same,"JC-1 Red cells (functional mitochondria) percent change from DMSO (no LPS), Mean ± SE","[4]; 1.0 μM AC, 1 ng/ml LPS",−16.41 ± 2.60%
same,"JC-1 Red cells (functional mitochondria) percent change from DMSO (no LPS), Mean ± SE","[4]; 1.0 μM AC, No LPS",−10.40 ± 2.08%
same,Final Tumor Volume,[1],723 ± 185 mm^3
same,Δ BW %,[1],−8.4%
same,Final Body Weight,[1],19.7 ± 1.1
same,Initial Body Weight,[1],21.5 ± 1.0 g
same,mean body weight at end of study,[5]; AC 120 μmol/kg/day i.p.,28.9 ± 1.3 g
same,mice regressed more than 50% from the initial tumor size,[5]; AC 120 μmol/kg/day i.p.,one
same,mice with no detectable tumors at end of study (complete regressions),[5]; AC 120 μmol/kg/day i.p.,two
same,day of death of the one mouse that died,[5]; [7],65 days
same,number of mice surviving until the study was terminated on day 79,[5]; [7],4
same,"tumor size, average % of initial size","[5]; day 77, AC 120 μmol/kg/day i.p.",949%
same,initial group body weight,[5]; pretreatment,26.8 ± 0.5 g
same,excess of the Vehicle group's liver weight/body weight ratio over the treated group,[2],12%
same,"area of liver invaded by metastatic cancer cells, in words",[2]; histology planimetry,markedly reduced the area of liver invaded by metastatic cancer cells
